Results reported in patent publication US8715718B2, “Extracellular matrix production from nanoscale substrate” (Rutgers, The State University of New Jersey, priority 2006, dated 2014).

Key:
[1] = tested on: Human foreskin fibroblasts, HFF; assay: Fibronectin matrix assembly by HFF, immunofluorescence and image analysis; assay type: cell-based
Protocol: (§1) Labtek chamber slides (Nalge Nunc International, Rochester, N.Y.) were coated overnight at 4° C. with FNf-ANPs or FNf as described above to attain equivalent display with FNf. […] Fibroblasts were seeded at densities and incubated for times described in each figure legend. […] Samples were then incubated with primary antibodies in blocking buffer (3% BSA) for 1 hour, washed, and further incubated with the appropriate secondary antibodies for 1 hour. Where indicated, cells were also incubated with TexasRed X- or fluoroscein-conjugated phalloidin to visualize F-actin. Cells were examined using a Leica SP/2 Confocal Laser Scanning Microscope.

fibroblasts [2] = assay: Cell morphology on ligand-ANC (FITC-phalloidin); assay type: cell-based, human
Protocol: Cell morphology was examined as a function of differential ligand presentation and nanocarrier size at two time points. Passively adsorbed substrates were prepared as described above. Fibroblasts that were serum deprived at least 12 hours before hand were seeded in serum free media for 1 or 5 hours at 37° C. Substrates were washed after the designated incubation time, and fixed with 3.7% formaldehyde for 15 minutes at room temperature. Substrates were washed again and permeabilized with Triton-X 100 for 15 minutes at room temperature. Substrates were washed, blocked with 1% BSA for 15 minutes at room temperature, washed again, and stained with FITC phalloidin (Molecular Probes) for 20 minutes. Substrates were washed and stored at 4° C. until image acquisition. Images were acquired with a Leica TCS SP/2 at 63×.
The effects of ligand presentation on cytoskeletal morphology were examined by labeling F-actin at two different time points (FIG. 7b). In that experiment, cell morphology was examined of fibroblasts cultured at the optimal ligand density for cell attachment (2.2 μg/cm^2) at 1 hour (left column) and 5 hours (right column) using FITC-phalloidin.

[3] = tested on: Human foreskin fibroblasts, HFF; assay: Cell adhesion assay (hexosaminidase); assay type: cell-based
Protocol: To quantify cell attachment to FNf-ANPs, 96-well non-tissue culture dishes were coated overnight at 4° C. with FNf-ANPs or FNf as described above. Wells were washed with PBS and blocked with 1% bovine serum albumin. After washing with PBS, HFF were plated at 2.5×10^4 cells/well and incubated for 60 minutes at 37° C. Medium and unbound cells were removed by inversion of the plate and two washes with PBS. Quantification of the number of adherent cells was performed using the hexosaminidase assay. Briefly, substrate composed of a 1:1 mixture of 0.5% Triton-X 100 and 7.5 mM β-nitrophenyl N-acetyl β-D glucosaminide in 0.1 M citrate buffer, pH 5.0, was added to each well and incubated for 90 minutes at 37° C. The reaction was terminated with 50 mM glycine/5 mM EDTA, pH 10.4 and the absorbance read at 405 nm on a multiwell plate reader.
(§2) To analyze cellular morphology, shape factors were quantified for all conditions.

[4] = tested on: Human foreskin fibroblasts, HFF; assay: Cell morphology by F-actin staining and shape factor; assay type: cell-based
Protocol: as §1
To characterize the effect of nanoparticle display of FNf on early cellular responses, adhesion and morphology were examined. […] Next, we extended the culture time of human foreskin fibroblasts (“HFF”) on FNf-ANPs or equivalent FNf, and evaluated cellular morphology. HFF (2.3×10^4 cells/cm^2) were cultured for 5 hours on surfaces prepared as described in Materials and Methods, then stained for F-actin with Texas Red X-conjugated phalloidin. Bar, 40 μm.
as §2

fibroblasts [5] = assay: Cell attachment to ligand-ANC (hexosaminidase assay); assay type: cell-based, human; settings: 1 hour, equal ligand density, differential presentation
Protocol: To quantify cell attachment to ligand-ANC, 96-well non-tissue culture dishes were passively coated overnight at 4° C. with varying ligand density and presentation as described above. Wells were washed with PBS and blocked with 1% bovine serum albumin. After washing, fibroblasts were seeded at 25,000 cells/well and incubated for 1 hour at 37° C. Substrates were washed with PBS to remove unbound cells. Adhered cells were quantified using the hexosaminidase assay. Briefly, a substrate mixture composed of 1 part […] and 1 part 7.5 mM [3-nitrophenyl N-acetyl [3-D glucosaminide (Sigma) in 0.1 M citrate buffer (pH 5.0), was added to each well and incubated for 90 minutes at 37° C. The reaction was terminated with a mixture of 50 mM glycine (Sigma) and 5 mM EDTA (Sigma) (pH 10.4). The absorbance was read at 405 nm on a multiwell plate reader.
Cell attachment is one of the earliest cell anchorage responses to substrates. To examine if the nanoscale presentation of ligand could alter early cell binding and attachment events, fibroblasts were seeded on ligand-adsorbed substrates of three different ligand densities with different presentations (FIG. 7a). […] Cells were incubated for 1 hour, unbound cells were washed, and the number of adherent cells was quantified using the hexosaminidase assay. […]

[6] = tested on: Human foreskin fibroblasts; assay: Imaging of fibronectin matrix assembly as a function of carrier size and ligand density; assay type: cell-based; settings: serum-free, 24 hours
Protocol: Substrates with equal levels of ligand but differential presentation were adsorbed in 8-well Labtek chamber slides overnight at 4° C. Substrates were then washed generously with PBS and blocked with BSA for 1 hour at 37° C. Fibroblasts were serum-starved at least 12 hours prior to trypsinization and re-plated at a density of 35,000 cells per well in serum free media. Cells were then cultured for 24 hours at 37° C. After 24 hour incubation, media was removed and substrates were washed with DPBS with calcium and magnesium. Cells were fixed with 1% formaldehyde for 9 minutes and washed with DPBS with calcium and magnesium. Cells were permeabilized with Triton-X 100 for 15 minutes and washed with DPBS with calcium and magnesium and blocked with 1% BSA for 1 hour at 37° C. Substrates were washed and primary antibody IST-4 (Sigma) for fibronectin that binds to the 5th type III repeat of human plasma fibronectin was incubated at a 1:100 dilution in PBS overnight at 4° C. Substrates were washed and incubated with FITC-conjugated donkey anti-mouse IgG (Jackson Immunolabs, West Grove, Pa.) at a 1:200 dilution for 30 minutes at room temperature, and were then washed and incubated with Texas-red phalloidin (Molecular Probes, Eugene, Oreg.) for 20 minutes at room temperature. Substrates were washed and stored at 4° C. until image acquisition. […]

C[C@@H](N)[C@H]1CC[C@H](C(=O)Nc2ccncc2)CC1 [Y27632]
effect on FNf-ANP induced matrix assembly by HFF ([1]; 3 μM Y27632 added 2 hours after seeding on FNf-ANP 1.70 μg/cm^2, overnight): abrogated | fibronectin matrix fibrils in the extracellular space compared to control conditions ([1]; HFF on FNf-ANP treated with Y27632, image analysis): significantly decreased levels

FNf: recombinant GST fusion of fibronectin fragment comprising repeats III9 and III10, adsorbed alone as comparator
cell spreading / morphology at 1 hour (fibroblasts [2]; 2.2 μg/cm^2, 1 hour): some filopodial projections | cell morphology at 5 hours (fibroblasts [2]; 2.2 μg/cm^2, 5 hours): well-spread with well defined stress fibers | cell attachment ([3]; 60 minutes, lowest amount of ligand tested): no detectable attachment | cellular adhesion over the FNf concentration range ([3]; adsorbed FNf up to the highest concentration): no significant increase in cellular adhesion | cell spreading (morphology) ([4]; 45 minutes post seeding): minimally spread | cell morphology ([4]; 5 hours of culture, F-actin staining): flattened, well-spread appearance | shape factor, (perimeter)^2/(4π(area)) ([4]; 5 hours, about 25 cells per condition, all FNf densities): around 4 | cell attachment at a specific ligand density (fibroblasts [5]): significant attachment, but to a lesser degree | deposition of fibronectin into the ECM when presented via the culture medium ([1]; HFF on bare coverglass, ligand added to media, overnight): not sufficient

whole length mouse fibronectin: whole length mouse fibronectin (Innovative Research) adsorbed as control substrate
cell spreading / morphology on control substrates (fibroblasts [2]; control substrates): polarized morphology consistent with migrating cells | fibronectin fibrils on control substrates [6]: Fibrils were not seen
